According to patent publication US11078228B2, “Ectonucleotidase inhibitors and methods of use thereof” (Calithera Biosciences, Inc., priority 2018, dated 2021):

Target: recombinant CD73 (Homo sapiens (Human), UniProt P21589)
Assay: Assay 2: Inhibition of the CD73 enzyme in vitro (0.05 nM CD73, 1 hour 37° C., Malachite Green)
Type: biochemical
Settings: 0.05 nM CD73, 50 μM AMP, 1 hour at 37° C.
Method: For measurements of soluble CD73 enzyme activity, recombinant CD73 was obtained from R&D Systems, Cat. No. 5795-EN-010. […] Reactions were allowed to proceed for 1 hour at 37° C. before the addition of 100 μL Malachite Green (Cell Signaling Technology, Cat. No. 12776). After 5 minutes at room temperature, absorbance at 630 nm was determined on a microplate spectrophotometer. The concentration of inorganic phosphate was determined using a phosphate standard curve.

Sequence of recombinant CD73 (P21589 27-547): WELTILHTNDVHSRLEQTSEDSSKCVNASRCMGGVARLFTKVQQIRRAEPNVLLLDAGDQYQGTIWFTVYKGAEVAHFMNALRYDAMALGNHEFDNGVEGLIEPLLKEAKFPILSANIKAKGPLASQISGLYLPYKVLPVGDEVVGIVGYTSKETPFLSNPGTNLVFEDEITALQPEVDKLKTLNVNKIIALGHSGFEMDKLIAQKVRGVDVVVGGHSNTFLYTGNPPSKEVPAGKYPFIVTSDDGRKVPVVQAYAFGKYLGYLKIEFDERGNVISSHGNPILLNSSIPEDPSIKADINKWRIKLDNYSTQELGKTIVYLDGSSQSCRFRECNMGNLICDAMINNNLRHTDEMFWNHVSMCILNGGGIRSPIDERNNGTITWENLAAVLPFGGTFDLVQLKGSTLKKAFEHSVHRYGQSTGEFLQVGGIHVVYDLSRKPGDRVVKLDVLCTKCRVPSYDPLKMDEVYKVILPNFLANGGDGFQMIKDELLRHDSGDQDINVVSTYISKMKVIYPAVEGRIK

SMILES	IC50
C#C[C@@]1(O)[C@@H](COC(Cc2ccccc2)(C(=O)O)C(=O)O)O[C@@H](n2cnc3c(NC(C)C)cc(Cl)nc32)[C@@H]1O [Example 30, 2-benzyl-2-(((2R,3S,4R,5R)-5-(5-chloro-7-(isopropylamino)-3H-imidazo[4,5-b]pyridin-3-yl)-3-ethynyl-3,4-dihydroxytetrahydrofuran-2-yl)methoxy)malonic acid]	5 nM
C#C[C@@]1(O)[C@@H](COC(Cc2ccccc2)(C(=O)O)C(=O)O)O[C@@H](n2cnc3c(N(C)C)nc(Cl)nc32)[C@@H]1O [Example 31, 2-benzyl-2-(((2R,3S,4R,5R)-5-(2-chloro-6-(dimethylamino)-9H-purin-9-yl)-3-ethynyl-3,4-dihydroxytetrahydrofuran-2-yl)methoxy)malonic acid]	2 nM
C#C[C@@]1(O)[C@@H](COC(Cc2ccsc2)(C(=O)O)C(=O)O)O[C@@H](n2cnc3c(NCCO)nc(Cl)nc32)[C@@H]1O [Example 32, 2-(((2R,3S,4R,5R)-5-(2-chloro-6-((2-hydroxyethyl)amino)-9H-purin-9-yl)-3-ethynyl-3,4-dihydroxytetrahydrofuran-2-yl)methoxy)-2-(thiophen-3-ylmethyl)malonic acid]	3 nM
C#C[C@@]1(O)[C@@H](COC(Cc2ccsc2)(C(=O)O)C(=O)O)O[C@@H](n2cnc3c(NC(C)C)nc(Cl)nc32)[C@@H]1O [Example 33, 2-(((2R,3S,4R,5R)-5-(2-chloro-6-(isopropylamino)-9H-purin-9-yl)-3-ethynyl-3,4-dihydroxytetrahydrofuran-2-yl)methoxy)-2-(thiophen-3-ylmethyl)malonic acid]	2 nM
C#C[C@@]1(O)[C@@H](COC(Cc2ccccc2)(C(=O)O)C(=O)O)O[C@@H](n2cnc3c(NC[C@@H](C)O)nc(Cl)nc32)[C@@H]1O [Example 35, 2-benzyl-2-(((2R,3S,4R,5R)-5-(2-chloro-6-(((R)-2-hydroxypropyl)amino)-9H-purin-9-yl)-3-ethynyl-3,4-dihydroxytetrahydrofuran-2-yl)methoxy)malonic acid]	4 nM
C#C[C@@]1(O)[C@@H](COC(Cc2ccccc2)(C(=O)O)C(=O)O)O[C@@H](n2cnc3c(NC[C@H](C)O)nc(Cl)nc32)[C@@H]1O [Example 36, 2-benzyl-2-(((2R,3S,4R,5R)-5-(2-chloro-6-(((S)-2-hydroxypropyl)amino)-9H-purin-9-yl)-3-ethynyl-3,4-dihydroxytetrahydrofuran-2-yl)methoxy)malonic acid]	4 nM
C#C[C@@]1(O)[C@@H](COC(Cc2ccccc2)(C(=O)O)C(=O)O)O[C@@H](n2cnc3c(N(CCO)CCO)nc(Cl)nc32)[C@@H]1O [Example 37, 2-benzyl-2-(((2R,3S,4R,5R)-5-(6-(bis(2-hydroxyethyl)amino)-2-chloro-9H-purin-9-yl)-3-ethynyl-3,4-dihydroxytetrahydrofuran-2-yl)methoxy)malonic acid]	6 nM
C#C[C@@]1(O)[C@@H](COC(Cc2ccccc2)(C(=O)O)C(=O)O)O[C@@H](n2cnc3c(NCCOC)nc(Cl)nc32)[C@@H]1O [Example 38, 2-benzyl-2-(((2R,3S,4R,5R)-5-(2-chloro-6-((2-methoxyethyl)amino)-9H-purin-9-yl)-3-ethynyl-3,4-dihydroxytetrahydrofuran-2-yl)methoxy)malonic acid]	3 nM
C#C[C@@]1(O)[C@@H](COC(Cc2ccccc2)(C(=O)O)C(=O)O)O[C@@H](n2cnc3c(N(C)CCOC)nc(Cl)nc32)[C@@H]1O [Example 39, 2-benzyl-2-(((2R,3S,4R,5R)-5-(2-chloro-6-((2-methoxyethyl)-(methyl)amino)-9H-purin-9-yl)-3-ethynyl-3,4-dihydroxytetrahydrofuran-2-yl)methoxy)malonic acid]	3 nM

Continued, values first:

IC50	SMILES
2 nM	C#C[C@@]1(O)[C@@H](COC(Cc2ccccc2)(C(=O)O)C(=O)O)O[C@@H](n2cnc3c(NCCCO)nc(Cl)nc32)[C@@H]1O [Example 34, 2-benzyl-2-(((2R,3S,4R,5R)-5-(2-chloro-6-((3-hydroxypropyl)amino)-9H-purin-9-yl)-3-ethynyl-3,4-dihydroxytetrahydrofuran-2-yl)methoxy)malonic acid]
3 nM	C#C[C@@]1(O)[C@@H](COC(Cc2ccccc2)(C(=O)O)C(=O)O)O[C@@H](n2cnc3c(NCC4(O)CCC4)nc(Cl)nc32)[C@@H]1O [Example 40, 2-benzyl-2-(((2R,3S,4R,5R)-5-(2-chloro-6-(((1-hydroxycyclobutyl)-methyl)amino)-9H-purin-9-yl)-3-ethynyl-3,4-dihydroxytetrahydrofuran-2-yl)methoxy)malonic acid]
0.6 nM	C#C[C@@]1(O)[C@@H](COC(Cc2ccccc2)(C(=O)O)C(=O)O)O[C@@H](n2cnc3c(N4CC(O)C4)nc(Cl)nc32)[C@@H]1O [Example 41, 2-benzyl-2-(((2R,3S,4R,5R)-5-(2-chloro-6-(3-hydroxyazetidin-1-yl)-9H-purin-9-yl)-3-ethynyl-3,4-dihydroxytetrahydrofuran-2-yl)methoxy)malonic acid]
1 nM	C#C[C@@]1(O)[C@@H](COC(Cc2ccccc2)(C(=O)O)C(=O)O)O[C@@H](n2cnc3c(N4CCC4CO)nc(Cl)nc32)[C@@H]1O (stereo partly drawn) [Example 42, 2-benzyl-2-(((2R,3S,4R,5R)-5-(2-chloro-6-(2-(hydroxymethyl)azetidin-1-yl)-9H-purin-9-yl)-3-ethynyl-3,4-dihydroxytetrahydrofuran-2-yl)methoxy)malonic acid]
2 nM	C#C[C@@]1(O)[C@@H](COC(Cc2ccccc2)(C(=O)O)C(=O)O)O[C@@H](n2cnc3c(NC4(CO)CC4)nc(Cl)nc32)[C@@H]1O [Example 43, 2-benzyl-2-(((2R,3S,4R,5R)-5-(2-chloro-6-((1-(hydroxymethyl)-cyclopropyl)amino)-9H-purin-9-yl)-3-ethynyl-3,4-dihydroxytetrahydrofuran-2-yl)methoxy)malonic acid]
62 nM	C#C[C@@]1(O)[C@@H](COC(Cc2ccccc2)(C(=O)O)C(=O)O)O[C@@H](n2cnc3c(NCC4(O)CC4)nc(Cl)nc32)[C@@H]1O [Example 44, 2-benzyl-2-(((2R,3S,4R,5R)-5-(2-chloro-6-(((1-hydroxycyclopropyl)-methyl)amino)-9H-purin-9-yl)-3-ethynyl-3,4-dihydroxytetrahydrofuran-2-yl)methoxy)malonic acid]
1 nM	C#C[C@@]1(O)[C@@H](COC(Cc2ccccc2)(C(=O)O)C(=O)O)O[C@@H](n2cnc3c(NCC4CCC4)nc(Cl)nc32)[C@@H]1O [Example 45, 2-benzyl-2-(((2R,3S,4R,5R)-5-(2-chloro-6-((cyclobutylmethyl)amino)-9H-purin-9-yl)-3-ethynyl-3,4-dihydroxytetrahydrofuran-2-yl)methoxy)malonic acid]
1 nM	C#C[C@@]1(O)[C@@H](COC(Cc2ccccc2)(C(=O)O)C(=O)O)O[C@@H](n2cnc3c(N4CC(CO)C4)nc(Cl)nc32)[C@@H]1O [Example 46, 2-benzyl-2-(((2R,3S,4R,5R)-5-(2-chloro-6-(3-(hydroxymethyl)azetidin-1-yl)-9H-purin-9-yl)-3-ethynyl-3,4-dihydroxytetrahydrofuran-2-yl)methoxy)malonic acid]
2 nM	C#C[C@@]1(O)[C@@H](COC(Cc2ccccc2)(C(=O)O)C(=O)O)O[C@@H](n2cnc3c(N4CC(C)(O)C4)nc(Cl)nc32)[C@@H]1O [Example 47, 2-benzyl-2-(((2R,3S,4R,5R)-5-(2-chloro-6-(3-hydroxy-3-methylazetidin-1-yl)-9H-purin-9-yl)-3-ethynyl-3,4-dihydroxytetrahydrofuran-2-yl)methoxy)malonic acid]
